Columns and labels:
[1] = system: HER2 high-expressing cancer cells SK-BR-3; assay: Cytotoxicity assay (CellTiter-Glo cell viability), SK-BR-3; type: cell-based; details: for IC50: Homo sapiens, SK-BR-3, 96 h, 96 h treatment
Experimental: (§1) Cytotoxicity assays were performed using HER2 high-expressing cancer cells NCI-N87 (FIG. 1) and SK-BR-3 (FIG. 2), as well as a HER2 negative cell line MDA-MB-468 (FIG. 3) to analyze the effect of conjugates on tumor cell proliferation. The tested articles included conjugates EC302-2-4-1-1 and EC301-2-1-1-1, and a small molecule eribulin (structure is depicted above). In brief, 5000 cells were plated in 96-well plates, and cells were able to attach overnight. Cells were treated with indicated drugs with various concentrations for 96 h. Cell viabilities were examined by CellTiter-Glo® Luminescent Cell Viability Assay, and percentage of cell viability was calculated.
as §1, with “4)” for “1)”, “5),” for “2),”, “6)” for “3)”, “The tested articles included conjugates EC302-2-4-1-1 and EC301-2-1-1-1, and a small molecule eribulin (structure is depicted above).” left out

[2] = system: FGFR3 negative cancer cell MCF-7; assay: Cytotoxicity assay (CellTiter-Glo cell viability), MCF-7; type: cell-based; details: 96 h
Experimental: (§2) Cytotoxicity assays were performed using FGFR3 high-expressing cancer cells RT112/84 and RT4, FGFR3 negative cancer cell MCF-7 (FIG. 7) to analyze the effect of conjugates on tumor cell proliferation. The tested articles included conjugate EC302-2-4-1-2, and a small molecule eribulin (structure is depicted above). In brief, 2000 cells (RT112/84) or 5000 cells (RT4 or MCF-7) were plated in 96-well plates, and cells were able to attach overnight. Cells were treated with indicated drugs with various concentrations for 96 h. Cell viabilities were examined by CellTiter-Glo® Luminescent Cell Viability Assay, and percentage of cell viability was calculated.

[3] = system: HER2 high-expressing cancer cells NCI-N87; assay: Cytotoxicity assay (CellTiter-Glo cell viability), NCI-N87; type: cell-based, human; details: for IC50: Homo sapiens, NCI-N87, 96 h, 96 h treatment
Experimental: as §1
as §1, with “4)” for “1)”, “5),” for “2),”, “6)” for “3)”, “The tested articles included conjugates EC302-2-4-1-1 and EC301-2-1-1-1, and a small molecule eribulin (structure is depicted above).” left out

[4] = system: FGFR3 high-expressing cancer cells RT112/84; assay: Cytotoxicity assay (CellTiter-Glo cell viability), RT112/84; type: cell-based; details: RT112/84, FGFR3-positive; 96 h
Experimental: as §2

[5] = system: FGFR3 high-expressing cancer cells RT4; assay: Cytotoxicity assay (CellTiter-Glo cell viability), RT4; type: cell-based; details: RT4, FGFR3-positive; 96 h
Experimental: as §2

[6] = system: HER2 negative cell line MDA-MB-468; assay: Cytotoxicity assay (CellTiter-Glo cell viability), MDA-MB-468; type: cell-based; details: for IC50: Homo sapiens, MDA-MB-468, 96 h, 96 h treatment
Experimental: as §1, with “The tested articles included conjugates EC302-2-4-1-1 and EC301-2-1-1-1, and a small molecule eribulin (structure is depicted above).” left out
as §1, with “4)” for “1)”, “5),” for “2),”, “6)” for “3)”, “The tested articles included conjugates EC302-2-4-1-1 and EC301-2-1-1-1, and a small molecule eribulin (structure is depicted above).” left out

Question: What does the source list for `C=C1C[C@@H]2CC[C@@]34C[C@H]5O[C@H]6[C@@H](O3)[C@H]3O[C@H](CC[C@@H]3O[C@H]6[C@H]5O4)CC(=O)C[C@@H]3[C@@H](OC)[C@@H](C[C@H](O)CN)O[C@H]3C[C@H]3O[C@@H](CC[C@@H]1O2)C[C@@H](C)C3=C` [Eribulin]?
Answer: cell proliferation-inhibitory effect, in words ([1]; Effect Example 1, SK-BR-3, HER2 high): sensitive; IC50 ([1]; Effect Example 1, Table 4): 0.298 nM; IC50 ([1]; Effect Example 2, Table 5): 0.211 nM; cytotoxicity, in words [2]: sensitive; cell proliferation-inhibitory effect, in words ([3]; Effect Example 1, NCI-N87, HER2 high): sensitive; IC50 ([3]; Effect Example 1, Table 4): 0.448 nM; IC50 ([3]; Effect Example 2, Table 5): 0.501 nM; effect on cell proliferation, in words [4]: sensitive; effect on cell proliferation, in words [5]: sensitive; cytotoxicity, in words ([6]; Effect Example 1, MDA-MB-468, HER2 negative): sensitive; IC50 ([6]; Effect Example 1, Table 4): 0.211 nM; IC50 ([6]; Effect Example 2, Table 5): 0.094 nM
